In publication PMC3048538, “Differences in the mannose oligomer specificities of the closely related lectins from Galanthus nivalis and Zea mays strongly determine their eventual anti-HIV activity” (Retrovirology, 2011):
Entries after “also recorded” stand apart in the source; their conditions may differ.

Experiments:
immobilized GNAmaize = test: SPR steady-state affinity of oligosaccharides with immobilized GNAmaize; parameters: species or system Zea mays; details: apparent, N.D. = not detectable, binding detected = KD could not be determined
Method: (§1) The experimental data were fit using the steady-state affinity model (Biacore T100 Evaluation software 2.0.2) to determine the apparent KD-values.
(§2) The apparent KD was calculated by steady-state affinity analysis (Table 6).

immobilized GNA = immobilized GNA (Galanthus nivalis, UniProt P30617); test: SPR steady-state affinity of oligosaccharides with immobilized GNA; details: apparent, N.D. = not detectable, no binding curves
Chain of immobilized GNA (P30617 24-128): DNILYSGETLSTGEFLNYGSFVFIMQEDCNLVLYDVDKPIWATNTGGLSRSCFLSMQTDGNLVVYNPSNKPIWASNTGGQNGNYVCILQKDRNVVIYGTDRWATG
Method: as §1, §2

[1] = tested on: syncytia formation between HuT-78/HIV-1 and Sup-T1 cells; test: Co-cultivation assay between Sup-T1 and persistently HIV-1-infected HuT-78 cells (syncytia formation); assay type: cell-based, Human; details: inhibit syncytia formation between HuT-78/HIV-1 and Sup-T1 cells by 50%
Method: Persistently HIV-1(IIIB)-infected HuT-78 cells (designated HuT-78/HIV-1) were washed to remove cell-free virus from the culture medium, and 5 × 10^4 cells (50 μl) were transferred to 96-well microtiter plates. Next, a similar amount of Sup-T1 cells (50 μl) and appropriate concentrations of test compound (100 μl), were added to each well.

[2] = tested on: HIV-1 DJ259 (clade C, R5); test: p24 production in HIV-infected PBMC, clinical isolate DJ259; assay type: cell-based; details: inhibit p24 production of HIV-infected PBMC
Method: (§3) Buffy coat preparations from healthy donors were obtained from the Blood Bank in Leuven. Peripheral blood mononuclear cells (PBMC) were isolated by density gradient centrifugation over Lymphoprep (density = 1.077 g/ml; Nycomed, Oslo, Norway). The PBMC were transferred to RPMI 1640 medium supplemented with 10% fetal calf serum (BioWhittaker Europe) and 2 mM L-glutamine and then stimulated for 3 days with phytohemagglutinin (PHA; Murex Biotech Limited, Dartford, United Kingdom) at 2 μg/ml. […] Supernatant was collected at days 8 to 10, and HIV-1 core antigen in the culture supernatant was analyzed by the p24 core antigen enzyme-linked immunosorbent assay (ELISA; DuPont-Merck Pharmaceutical Co., Wilmington, Del.).

[3] = tested on: transmission of DC-SIGN-captured HIV-1(IIIB) to CD4+ T-lymphocyte C8166 cells; test: Transmission of DC-SIGN-captured HIV-1(IIIB) to C8166 cells (syncytia formation); assay type: cell-based; details: transmission of DC-SIGN-captured virions to CD4+ T cells (C8166)
Method: (§4) The experiment was performed as described previously. Briefly, B-lymphocyte DC-SIGN-expressing (Raji/DC-SIGN) cells were suspended in cell culture medium at 2 × 10^6 cells/ml. 100 μl of HIV-1(IIIB) (~250,000 pg p24) were added in the presence of 400 μl of serial dilutions of the test compounds. After 60 minutes of incubation, the cells were carefully washed 3 times to remove unbound virions and resuspended in 1 ml of cell culture medium. The captured HIV-1(IIIB) was quantified by a p24 Ag ELISA. From the Raji/DC-SIGN cell suspension, 200 μl were also added to the wells of a 48-well microtiter plate in the presence of 800 μl uninfected C8166 cells (2.5 × 10^5 cells/ml). These cocultures were further incubated at 37°C, and syncytia formation was evaluated microscopically after ~ 18 to 42 h, and viral p24 Ag determination in the culture supernatants was performed.
(§5) One hour later, free virus particles and the test compounds were carefully removed from the cell cultures by several washing steps.

HIV-2(ROD) = test: Antiretrovirus assay, HIV-2(ROD)-induced cytopathicity (syncytium formation) in CEM cell cultures; assay type: cell-based; details: inhibit virus-induced cytopathicity in CEM cell cultures by 50%
Method: (§6) CEM cells (5 × 10^5 cells per ml) were suspended in fresh culture medium and infected with HIV-1 and HIV-2 at 100 times the CCID50 (50% cell culture infective doses) per ml of cell suspension, of which 100 μl was mixed with 100 μl of the appropriate dilutions of the test compounds, and further incubated at 37°C. After 4 to 5 days, syncytia formation was recorded microscopically in the cell cultures. The 50% effective concentration (EC50) corresponds to the compound concentration required to prevent syncytium formation by 50% in the virus-infected CEM cell cultures.

[4] = tested on: HIV-1 ID12 (clade A/E, R5); test: p24 production in HIV-infected PBMC, clinical isolate ID12; assay type: cell-based; details: inhibit p24 production of HIV-infected PBMC
Method: as §3

[5] = tested on: HIV-1 UG273 (clade A, R5); test: p24 production in HIV-infected PBMC, clinical isolate UG273; assay type: cell-based; details: inhibit p24 production of HIV-infected PBMC
Method: as §3

HIV-1(BaL) (Clade B) = test: p24 production in HIV-infected PBMC, BaL; assay type: cell-based; details: inhibit p24 production of HIV-infected PBMC
Method: as §3

[6] = tested on: DC-SIGN-mediated capture of HIV-1(IIIB) by Raji/DC-SIGN cells; test: Capture of HIV-1(IIIB) by Raji/DC-SIGN cells (p24 Ag ELISA); assay type: cell-based; details: HIV-1(IIIB) capture by Raji/DC-SIGN cells
Method: as §4, §5

HIV-1(IIIB) = test: Antiretrovirus assay, HIV-1(IIIB)-induced cytopathicity (syncytium formation) in CEM cell cultures; assay type: cell-based; details: inhibit virus-induced cytopathicity in CEM cell cultures by 50%
Method: as §6

In the case of OC[C@H]1O[C@H](O[C@@H]2[C@@H](O[C@@H]3C(O)O[C@H](CO)[C@@H](O)[C@@H]3O)O[C@H](CO)[C@@H](O)[C@@H]2O)[C@@H](O)[C@@H](O)[C@@H]1O (stereo partly drawn) [(α1,2-man)3], the “KD, immobilized GNAmaize” value (immobilized GNAmaize) is reported as “did not bind” and the Kd (immobilized GNA) is reported as greater than 1000 µM.

CC(=O)N[C@H]1[C@H](O[C@@H]2C(O)O[C@H](CO)[C@@H](O)[C@@H]2O)O[C@H](CO)[C@@H](O)[C@@H]1O (some centres unmarked) [GlcNAcβ1,2Man, GlcNAcß1,2Man] was tested, and the “KD, immobilized GNAmaize” value (immobilized GNAmaize) was “binding detected^b”, the “KD, immobilized GNAmaize” value (immobilized GNAmaize; listed as GlcNAcß1,2Man) was “able to measurably bind” and the “KD, immobilized GNA” value (immobilized GNA) was “didn't bind; also recorded: not to GNA”.

In the case of “GNA: mannose-specific tetrameric plant lectin of 50 kDa from snowdrop (Galanthus nivalis) bulbs”, the EC50 [1] is reported as 0.062 ± 0.064 µM, the EC50 [2] is reported as 0.84 µM and the EC50 [3] is reported as 0.006 ± 0.005 µM. For the same molecule, the EC50 (HIV-2(ROD)) was 0.008 ± 0.001 µM, the “EC50 Clade A/E, ID12” value [4] was 0.38 µM and the EC50 [5] was 0.046 µM. It also gave an EC50 (HIV-1(BaL) (Clade B)) of 0.13 µM, an EC50 [6] of 0.04 ± 0.01 µM and an EC50 (HIV-1(IIIB)) of 0.007 ± 0.001 µM.

With CC(=O)N[C@H]1[C@H](O[C@H]2[C@H](O)[C@@H](NC(C)=O)C(O)O[C@@H]2CO)O[C@H](CO)[C@@H](O[C@@H]2O[C@H](CO[C@H]3O[C@H](CO)[C@@H](O)[C@H](O)[C@@H]3O[C@@H]3O[C@H](CO)[C@@H](O)[C@H](O)[C@H]3NC(C)=O)[C@@H](O)[C@H](O[C@H]3O[C@H](CO)[C@@H](O)[C@H](O)[C@@H]3O[C@@H]3O[C@H](CO)[C@@H](O)[C@H](O)[C@H]3NC(C)=O)[C@@H]2O)[C@@H]1O (some centres unmarked) [GlcNAcβ1,2Manα1,3(GlcNAcβ1,2Manα1,6)Manβ1,4GlcNAcβ1,4GlcNAc] the “KD, immobilized GNAmaize” value (immobilized GNAmaize) was “binding detected^b”, the “KD, immobilized GNAmaize” value (immobilized GNAmaize; listed as GlcNAcβ1,2Manα1,3(GlcNAcβ1,2Manα1,6) Manβ1,4GlcNAcβ1,4GlcNAc) was “able to bind” and the “KD, immobilized GNA” value (immobilized GNA) was “not to GNA”.

For OC[C@H]1O[C@H](O[C@H]2[C@H](O)[C@@H](CO)OC(O)[C@H]2O)[C@@H](O)[C@@H](O)[C@@H]1O (stereo partly drawn) [(α1,3-man)2], the “KD, immobilized GNAmaize” value (immobilized GNAmaize) was “did not bind”, the “KD, immobilized GNA” value (immobilized GNA) was “preferentially bind” and the Kd (immobilized GNA) was greater than 2000 µM.
